Data on one substance can be found in patent US20090297628A1, “Use of iron in the form of a stone extract as stimulus of the synthesis of collagen by skin fibroblasts” (GATTEFOSSE SAS, priority 2005, published 2009).

For this assay, the system named is pro-collagen I in normal human fibroblasts. Nature of the assay: Pro-collagen I content of normal human fibroblasts cultivated in a monolayer (Elisa on cell lysates). It counts as cell-based. The following applies: 10 ng/ml, 48 H incubation, p<0.05. The text has this:
The influence of the product on the expression of pro-collagen I is investigated in a model of normal human fibroblasts cultivated in a monolayer. The pro-collagen I is quantified using an Elisa (Enzyme Linked ImmunoSorbent Assay) kit on cell lysates. Furthermore, the proteins contained in the cell lysates are quantified by a spectrocolorimetric method according to the Bradford method. Included in the study is a negative control, consisting of the culture medium, and a positive control, represented by TGF-β (Transforming Growth Factor β) containing 10 ng/ml.
Collagens of types I, II, […], IV and V are synthesized from precursor molecules called “pro-collagen”. […]
The fibroblasts are incubated for 48 hours at 37° C., under humid atmosphere and 5% CO2 in a culture medium alone or in the presence of a reference product or increasing concentrations of active ingredients in the test. After 48 H of incubation of the test product, the type I pro-collagen and the total proteins present in the cell lysates are quantified. The results are obtained as a quantity (ng) of pro-collagen of type I C-Peptide per quantity (μg) of total proteins of the cell layer (means+/−standard deviation, S.D.). The statistical significance (*) of the differences observed between the “control” condition and each “treated” condition is evaluated by a One Way ANOVA on Ranks analysis followed by a Dunn's test (*: p<0.05). […]

Take TGF-β: the “Increase of the intrafibroblastic content of type I pro-collagen” value turned out to be 25%.
